# Patent US20230090255A1, “MAGL INHIBITOR, PREPARATION METHOD THEREFOR AND USE THEREOF” (LUNAN PHARMACEUTICAL GROUP CORPORATION, priority 2019, published 2023)
# Tests used:
# [1] = biological target: T1, recombinant human protein MAGL (Homo sapiens, UniProt Q99685); assay: MAGL enzyme analysis (Cayman MAGL inhibitor screening kit); type: biochemical; settings: 4-nitrophenylacetic acid substrate, absorbance 410 nm, read-out: MAGLXIC50
# T1 construct: purchased Cayman
# T1 sequence (Q99685 1-303): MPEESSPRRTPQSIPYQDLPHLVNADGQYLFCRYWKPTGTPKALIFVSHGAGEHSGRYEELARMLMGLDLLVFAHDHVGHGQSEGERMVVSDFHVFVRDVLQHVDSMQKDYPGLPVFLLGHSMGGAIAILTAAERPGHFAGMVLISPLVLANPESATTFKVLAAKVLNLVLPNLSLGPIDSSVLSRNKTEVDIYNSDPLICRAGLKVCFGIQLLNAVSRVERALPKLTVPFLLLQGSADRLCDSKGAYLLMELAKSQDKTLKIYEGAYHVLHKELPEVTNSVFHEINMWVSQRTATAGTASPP
# [2] = tested on: mice forced swimming test; assay: Mice forced swimming test; type: in vivo, ICR mice; settings: forced swimming, 6 min; 5 mg/kg intragastric once per day 10 d, 1 h after final administration
# Experimental: Male ICR mice having a body weight of 18-22 g. The animals were active on a schedule of normal illumination for 12 h and in the dark for 12 h. Environmental temperature and relative humidity were relatively kept for 22±1° C. and 55±5%.
# There were 7 groups of laboratory mice, 10 pieces each group, set as a control group (normal saline), a positive control group (fluoxetine hydrochloride capsule, 5 mg/kg), 5 MAGLZ-II series of administration treatment groups: MAGLZ-II-06, MAGLZ-II-07, MAGLZ-II-11, MAGLZ-II-17 and MAGLZ-II-18, respectively, with an administration concentration of 5 mg/kg.
# All medicaments were used once per day via intragastric administration with a dose of 20 mL/kg (body weight), lasting for 10 d. 1 h later after the final administration, the detection of animal behaviors was started.
# Mice forced swimming test was performed according to the method established by Porsolt (Porsolt R D. Behavioural despair in mice: A primary screening test for antidepressants[J]. Arch. Int. Pharmacolodyn. 1977, 229). […] Each mouse was judged as still when stopped struggling, kept suspension in water and only made necessary movement to keep the head above the water.
# All data are shown by x̅±SD, and the comparison among groups is analyzed by one-way variance.
# [3] = tested on: mice pain response induced by hot plate; assay: Mice pain response induced by hot plate; type: in vivo, ICR mice; settings: for Pain threshold: hot plate 55°C
# Experimental: Female ICR mice (20±2) g were placed on an intelligent hot plate at 55±0.5° C., and latency (s) that the plantar of mice touched the hot plate until the occurrence of a hind paws licking response served as a pain threshold indicator; the mice (response latency <5 s or >30 s) or jumping mice were eliminated.
# Grouping and administration were the same as those in Example 40.
# The mice were continuously administered intragastrically for 7 consecutive days; the pain threshold of each group of mice was respectively determined once at 30, 60, 90 and 120 min after the final administration; the pain threshold greater than 60 s was calculated by 60 s.
# [4] = tested on: irritable bowel syndrome rats; assay: Irritable bowel syndrome rats induced by early maternal separation; type: in vivo, SD rats; design: AWR scoring: scale not given here; settings: for Colon 5-HT / Serum 5-HT / AWR scoring: IBS rats
# Experimental: The newborn SD male rats were separated from the mother rat in lactation period for 3 h every day on the 2nd to the 21st day after the birth of the newborn SD rats, namely, the mother rat in lactation period was taken out of the cage at 8:30 a.m., and then the newborn rats were removed from the initial cage and put to another separate cage, then the cage was transferred to an adjacent room, then the newborn rats were returned to the initial cage 3 h later, namely, at 11:30 such that the newborn rats and the mother rat got together; the newborn rats were weaned on the 22nd day after birth and separated from the initial cage on the 30th day, grouped on the 60th day, and administered, 20 d in total.
# Intragastric administration was performed within the administration period once a day with continuous administration for 20 d.
# Test indicators: abdominal withdrawal reflex (AWR); test method: rats were fasted 18 h before the experiment and drank water freely, and narcotized with diethyl ether; then an air sac coated with paraffin oil was inserted into the rats’ colorectum for 4.0 cm, and a catheter outside the anus was fixed at the root of the rat tail with an adhesive tape, and connected with an injection syringe and a sphygmomanometer via three links. The rats were put to an organic glass inspection box (20 cmx12 cm×9 cm), after the rats were awake and fully adapted to the environment for 30 min, the experiment was started. 20, 40 and 60 mm Hg of pressure were respectively applied on the rats, and continuous expansion was performed for 20 s each time with a stimulus interval of 4 min; each pressure was performed for 3 times repeatedly for AWR scoring.
# At the end of the experiment, the animals were dissected and weighed, and narcotized to take blood, then the content of 5-HT in serum was determined by high performance liquid chromatography. […] slightly with 0.5% sodium carboxymethylcellulose, and then sucked dry with a filter paper, and placed into a cryogenic tube, and preserved at -20° C. for further use, […] chromatography.
# [5] = tested on: mice writhing caused by acetic acid; assay: Mice writhing caused by acetic acid; settings: for Writhing times: 1 h before 0.7% acetic acid ip, within 20 min; for Latent time: time to first writhing; for Inhibition ratio: writhing inhibition
compound,measurement,setting,value
O=C(Nc1cccc(Cl)c1)C1CCN(C(=O)c2cccc(O)c2)CC1 [MAGLZ-II-11],IC50,[1],96 nM
same,Accumulated immobility time,[2],73.57±27.28 S
same,"pain thresholds of the thermal-stimulus mice, in words",[3]; compared with the model group,significantly extend
same,Pain threshold,"[3]; high dose 30 mg/kg ig 7 d, 30 min after final administration",41.43 ± 5.15 s
same,Pain threshold,"[3]; high dose 30 mg/kg ig 7 d, 60 min",46.16 ± 6.63 s
same,Pain threshold,"[3]; high dose 30 mg/kg ig 7 d, 90 min",47.22 ± 5.98 s
same,Pain threshold,"[3]; high dose 30 mg/kg ig 7 d, 120 min",45.49 ± 6.31 s
same,Pain threshold,"[3]; low dose 7.5 mg/kg ig 7 d, 30 min after final administration",37.92 ± 8.83 s
same,Pain threshold,"[3]; low dose 7.5 mg/kg ig 7 d, 60 min",44.14 ± 7.56 s
same,Pain threshold,"[3]; low dose 7.5 mg/kg ig 7 d, 90 min",45.93 ± 8.38 s
same,Pain threshold,"[3]; low dose 7.5 mg/kg ig 7 d, 120 min",43.80 ± 6.12 s
same,Pain threshold,"[3]; middle dose 15 mg/kg ig 7 d, 30 min after final administration",40.33 ± 8.25 s
same,Pain threshold,"[3]; middle dose 15 mg/kg ig 7 d, 60 min",44.87 ± 5.67 s
same,Pain threshold,"[3]; middle dose 15 mg/kg ig 7 d, 90 min",46.41 ± 5.36 s
same,Pain threshold,"[3]; middle dose 15 mg/kg ig 7 d, 120 min",43.44 ± 5.91 s
same,Colon 5-HT,[4]; high dose 30 mg/kg ig 20 d,12.00±2.93^∗∗∗ µg/mg
same,Serum 5-HT,[4]; high dose 30 mg/kg ig 20 d,23.82±6.34^∗∗∗ µg/ml
same,AWR scoring,"[4]; high dose 30 mg/kg ig 20 d, 20 mm Hg",1.39±0.30^∗∗ ∗
same,AWR scoring,"[4]; high dose 30 mg/kg ig 20 d, 40 mm Hg",1.92±0.33^∗∗∗
same,AWR scoring,"[4]; high dose 30 mg/kg ig 20 d, 60 mm Hg",2.86±0.26^∗∗∗
same,Colon 5-HT,[4]; low dose 7.5 mg/kg ig 20 d,16.24±2.34^∗∗ µg/mg
same,Serum 5-HT,[4]; low dose 7.5 mg/kg ig 20 d,31.75±5.33^∗∗ µg/ml
same,AWR scoring,"[4]; low dose 7.5 mg/kg ig 20 d, 20 mm Hg",2.50±0.38^∗
same,AWR scoring,"[4]; low dose 7.5 mg/kg ig 20 d, 40 mm Hg",3.00±0.49^∗∗
same,AWR scoring,"[4]; low dose 7.5 mg/kg ig 20 d, 60 mm Hg",3.60±0.22^∗∗
same,Colon 5-HT,[4]; middle dose 15 mg/kg ig 20 d,14.33±2.10^∗∗∗ µg/mg
same,Serum 5-HT,[4]; middle dose 15 mg/kg ig 20 d,29.47±4.91^∗∗∗ µg/ml
same,AWR scoring,"[4]; middle dose 15 mg/kg ig 20 d, 20 mm Hg",2.02±0.57^∗∗
same,AWR scoring,"[4]; middle dose 15 mg/kg ig 20 d, 40 mm Hg",2.42±0.41^∗∗∗
same,AWR scoring,"[4]; middle dose 15 mg/kg ig 20 d, 60 mm Hg",3.03±0.37^∗∗∗
same,"5-HT level in colon and serum, in words",[4]; compared with the model group,significantly decrease
same,"AWR scoring, in words",[4]; compared with the model group,significantly decrease
same,"latent time, in words",[5]; compared with the model group,extend
same,"mice writhing times caused by acetic acid, in words",[5]; compared with the model group,significantly decrease
same,Writhing times,[5]; high dose 30 mg/kg ig,13.6±13.1
same,Latent time,[5]; high dose 30 mg/kg ig,467.8 ± 175.6 s
same,Inhibition ratio,[5]; high dose 30 mg/kg ig,65.4%
same,Writhing times,[5]; low dose 7.5 mg/kg ig,23.4±11.7
same,Latent time,[5]; low dose 7.5 mg/kg ig,379.7 ± 129.3 s
same,Inhibition ratio,[5]; low dose 7.5 mg/kg ig,40.5%
same,Writhing times,[5]; middle dose 15 mg/kg ig,17.5±9.6
same,Latent time,[5]; middle dose 15 mg/kg ig,408.4 ± 128.2 s
same,Inhibition ratio,[5]; middle dose 15 mg/kg ig,55.5%
